Experimental findings from PMC7770674, “A Combinative Assembly Strategy Inspired Reversibly Borate-Bridged Polymeric Micelles for Lesion-Specific Rapid Release of Anti-Coccidial Drugs” (Nano-Micro Letters, 2020) are described below.

For this data set, the system named is Caco2 cells. The experiment in a line: In vitro cytotoxicity MTT assay. The data set is classed as cell-based, human. To be noted: DIC concentration 100 μg mL^−1, 48 h. How it is done: For cell studies, human colon cancer cell line Caco2 cells (Shanghai Institute of Biochemistry and Cell Biology, Chinese Academy of Sciences, Shanghai, China) were cultured in DMEM medium supplemented with 10% FBS, 100 U mL^−1 penicillin, and 100 μg mL^−1 streptomycin at 37 °C under an atmosphere of 5% CO2 and 95% relative humidity. In vitro cytotoxicity of free DIC, blank micelles and DIC-encapsulated micelles were evaluated by 3-(4,5-dimethylthiazol-2-yl)-2,5-diphenyltetrazolium bromide (MTT) assay. Caco2 cells were planted in 96-well plate at a density of 5 × 10^3 cells per well and cultured for another 24 h. The cells were treated with free DIC, PCS/DIC micelles, PCS + DIC mixture, SPCS/DIC micelles and SPCS + DIC mixture at a range of DIC concentrations (0.001–100 μg mL^−1), or PCS and SPCS blank micelles at equivalent concentrations of corresponding drug-loaded micelles for 48 h. Thereafter, 20 µL of MTT solution (5 mg mL^−1) was added to each well and incubated with cells for another 4 h at 37 °C. The culture medium was then removed, and the formed dark blue formazan crystals were dissolved with 100 µL of DMSO. The absorbance at 570 nm was recorded using a microplate reader (EL800, BIO-TEK Instruments Inc., USA). Untreated cells were used as control, and cell viability (%) was calculated according to Eq. (3).3 Cellviability(%)=Atest/Acontrol×100%
(Tetrazolium dyes change colour on reduction, which living cells bring about.)

`N#CC(c1ccc(Cl)cc1)c1c(Cl)cc(-n2ncc(=O)[nH]c2=O)cc1Cl` (stereo not shown) [Free DIC, Diclazuril]: the cells survived entry is recorded as “less than 10%”.
